The values that follow come from BindingDB's records for patent US11447487 (Bristol-Myers Squibb Company, 2022).

Chain of Rho-associated protein kinase 2 (O75116 whole entry): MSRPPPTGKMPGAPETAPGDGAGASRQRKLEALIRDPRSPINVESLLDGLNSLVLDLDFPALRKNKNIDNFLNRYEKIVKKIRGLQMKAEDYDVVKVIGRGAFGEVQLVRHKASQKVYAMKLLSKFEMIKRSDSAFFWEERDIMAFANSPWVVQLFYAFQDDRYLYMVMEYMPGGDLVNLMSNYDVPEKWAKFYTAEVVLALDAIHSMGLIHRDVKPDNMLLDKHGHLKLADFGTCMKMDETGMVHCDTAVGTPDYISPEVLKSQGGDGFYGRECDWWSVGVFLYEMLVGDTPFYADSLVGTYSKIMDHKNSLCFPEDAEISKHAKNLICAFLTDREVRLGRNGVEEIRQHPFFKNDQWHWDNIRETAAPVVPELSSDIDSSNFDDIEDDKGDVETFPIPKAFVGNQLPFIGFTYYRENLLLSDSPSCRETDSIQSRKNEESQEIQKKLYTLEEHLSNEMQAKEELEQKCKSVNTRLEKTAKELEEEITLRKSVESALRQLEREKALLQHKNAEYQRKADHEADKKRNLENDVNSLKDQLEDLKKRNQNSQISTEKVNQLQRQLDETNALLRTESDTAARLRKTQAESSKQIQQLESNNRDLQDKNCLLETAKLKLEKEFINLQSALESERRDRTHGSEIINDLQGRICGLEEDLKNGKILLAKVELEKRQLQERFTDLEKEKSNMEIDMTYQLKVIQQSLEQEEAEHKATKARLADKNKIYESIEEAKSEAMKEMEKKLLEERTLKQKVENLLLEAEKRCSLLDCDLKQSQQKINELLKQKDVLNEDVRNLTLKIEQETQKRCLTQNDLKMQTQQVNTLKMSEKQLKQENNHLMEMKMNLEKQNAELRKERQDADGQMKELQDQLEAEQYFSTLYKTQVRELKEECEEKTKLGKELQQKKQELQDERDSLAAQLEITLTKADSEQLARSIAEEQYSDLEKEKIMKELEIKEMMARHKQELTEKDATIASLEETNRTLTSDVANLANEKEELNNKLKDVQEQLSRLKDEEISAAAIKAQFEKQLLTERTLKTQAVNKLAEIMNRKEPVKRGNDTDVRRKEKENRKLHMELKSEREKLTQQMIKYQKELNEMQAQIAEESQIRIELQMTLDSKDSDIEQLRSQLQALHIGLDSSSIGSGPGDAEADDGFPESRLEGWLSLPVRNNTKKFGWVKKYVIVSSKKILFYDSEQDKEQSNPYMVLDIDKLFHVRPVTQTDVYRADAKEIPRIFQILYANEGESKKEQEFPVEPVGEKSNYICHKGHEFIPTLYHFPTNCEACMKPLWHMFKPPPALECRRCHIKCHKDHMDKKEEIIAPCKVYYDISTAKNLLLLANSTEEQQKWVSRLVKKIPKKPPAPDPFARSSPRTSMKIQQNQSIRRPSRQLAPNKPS

The target of this assay is Rho-associated protein kinase 2 (Homo sapiens, UniProt O75116). Put plainly: In Vitro Assays. How it is done:
The effectiveness of compounds of the present invention as ROCK inhibitors can be determined in a 30 μL assay containing 20 mM HEPES, pH 7.5, 20 mM MgCl2, 0.015% Brij-35, 4 mM DTT, 5 μM ATP and 1.5 μM peptide substrate (FITC-AHA-AKRRRLSSLRA-OH) (SEQ ID No. 1). Compounds were dissolved in DMSO so that the final concentration of DMSO was <2%, and the reaction was initiated with Rho kinase variants. After incubation, the reaction was terminated by the addition of EDTA and the phosphorylated and non-phosphorylated peptides separated using a LABCHIP 3000 Reader (Caliper Life Sciences). […] Compounds were tested in dose-response format, and the inhibition of kinase activity was calculated at each concentration of compound. The inhibition data were fit using a curve-fitting program to determine the IC50; i.e., the concentration of compound required to inhibit 50% of kinase activity.
The compound `NC(=O)c1cccnc1O[C@H]1CC2(C1)C[C@H](N1C(=O)CN(c3ccc(OC(F)(F)F)cc3)C1=O)C2` (stereo partly drawn) [US11447487, Example 86] displayed an IC50 of 6 nM. Then `NC(=O)c1cccnc1O[C@H]1CC2(C1)C[C@H](N1C(=O)NC(CCC3CCCCC3)C1=O)C2` (stereo partly drawn) [US11447487, Example 4], with 13 nM. The same measure for `NC(=O)c1cccnc1O[C@H]1CC2(C1)C[C@H](N1C(=O)CC(Cc3ccccc3)NC1=O)C2` (stereo partly drawn) [US11447487, Example 76]: 456 nM.
